Measurements from paper PMC10892093 (Pharmaceutics, 2024).
Read-outs that look alike come from different tables or passages of the source.

Columns and labels:
UGT2B15 = molecular target: T1, UGT2B15 (Homo sapiens, UniProt P54855); assay: Inhibition of S-oxazepam glucuronidation in rUGT2B15 homogenate/microsomes (UGT-overexpressing HEK293); type: biochemical; conditions: for IC50: rUGT2B15
T1 construct: expressed in transfected cells; cell homogenate
T1 sequence (P54855 24-530): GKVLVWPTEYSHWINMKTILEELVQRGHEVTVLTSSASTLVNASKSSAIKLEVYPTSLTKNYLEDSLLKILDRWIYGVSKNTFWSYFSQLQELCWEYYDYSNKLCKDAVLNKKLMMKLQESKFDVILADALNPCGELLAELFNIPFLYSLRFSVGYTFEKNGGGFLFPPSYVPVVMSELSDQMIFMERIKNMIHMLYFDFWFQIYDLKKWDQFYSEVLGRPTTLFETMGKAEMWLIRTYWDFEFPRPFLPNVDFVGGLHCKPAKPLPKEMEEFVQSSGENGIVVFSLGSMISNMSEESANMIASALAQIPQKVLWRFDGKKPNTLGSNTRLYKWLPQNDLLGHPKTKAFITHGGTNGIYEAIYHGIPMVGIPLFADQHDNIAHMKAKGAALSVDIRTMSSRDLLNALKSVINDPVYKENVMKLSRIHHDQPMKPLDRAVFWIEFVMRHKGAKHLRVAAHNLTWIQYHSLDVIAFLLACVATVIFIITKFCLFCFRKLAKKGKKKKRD
Procedure: Human embryonic kidney cells (HEK293) stably overexpressing the single UGTs 1A9, 2B7, and 2B15 have been previously established and described. Cells were grown in DMEM supplemented with 350 μg/mL of geneticin and 10% FBS and harvested in PBS. Microsomal fractions of UGT-overexpressing cell lines were prepared by differential centrifugation using previously described protocols. Briefly, cell homogenates were prepared by resuspending pelleted cells in PBS, followed by five rounds of freeze–thaw cycles prior to homogenization. Recombinant microsomes (rUGTs) were prepared by centrifuging the cell homogenate at a low speed (9000× g for 30 min) followed by ultracentrifugation (34,000× g for 60 min), with the total protein subsequently determined using a BCA assay. Recombinant microsomes (UGT1A9 and 2B7) and homogenates (UGT2B15) were used for inhibition studies.
(§1) A Waters Corp BEH C18 Acquity UPLC column (1.7 µM, 2.1 × 100 mm) was used at a constant temperature of 40 °C for chromatographic separation. An elution gradient was used for 6.5 min with mobile phases A (5 mM ammonium formate) and B (100% methanol) under the following conditions: 90% A for 0.5 min, followed by a linear gradient for 3 min to 60% A, 1 min at 5% A, and re-equilibration for 1 min at 90% A.
(§2) The reaction was initiated by the addition of 4 mM UDPGA as the cofactor and incubated for 2 h at 37 °C. The reaction was terminated by adding 30 µL of an ice-cold stop solution (acetonitrile/methanol; 1:1). The reaction mixtures were centrifuged at 17,000× g for 30 min at 4 °C, and the supernatant was transferred to UPLC sample glass vial for analysis using UPLC–MS/MS (described above). […] As a positive control for inhibition assays, ketoconazole (10 μM and 100 µM) was used as a potential inhibitor of the UGTs 1A9, 2B7, and 2B15. Reactions containing only the cannabinoid vehicle (3% methanol) and without any inhibitor (cannabinoids) were used as a baseline reaction for 100% enzyme activity, while a reaction without UDPGA was used as a negative control. All experiments were performed in three independent experiments.
(§3) Determination of IC50 and Ki Values. […] The nonspecific binding constants (fu,inc) for cannabinoids in HEK293 microsomes, HLM, and HKM were previously determined and used to calculate the inhibition by unbound (‘free’) cannabinoid in each reaction. A nonlinear regression analysis and the following equation were used to calculate the IC50 values:(1) y = Bottom +Top − Bottom / 1 + 10^x − LogIC50A where ‘Bottom’ is the maximum observed inhibition (lowest percent activity) and ‘Top’ is the minimum observed inhibition (highest percent activity) for a given cannabinoid.

[1] = system: human kidney microsomes (HKM); assay: Inhibition of R- and S-oxazepam glucuronidation in human kidney microsomes
Procedure: as §1, §2, §3

[2] = cited from earlier work
[3] = system: UGTs (R-oxazepam glucuronidation in HKM); assay: Inhibition of R- and S-oxazepam glucuronidation in human kidney microsomes; conditions: human, human kidney microsomes
Procedure: as §1, §2, §3

[4] = system: UGTs (S-oxazepam glucuronidation in HKM); assay: as above; conditions: human, human kidney microsomes
Procedure: as §1, §2, §3

[5] = system: UGTs (R-oxazepam glucuronidation in HLM); assay: Inhibition of R- and S-oxazepam glucuronidation in human liver microsomes; conditions: human, human liver microsomes
Procedure: as §1, §2, §3
(§4) The inhibition constant (Ki) was generated from the in vitro IC50 values assuming competitive inhibition (based on the Cheng–Prusoff equation; [49]). Considering that there have been no reports of the irreversible inhibition (e.g., mechanism-based inhibition) of UGTs, competitive inhibition was assumed as the worst-case scenario (highest inhibition) among all feasible types of reversible inhibitions. The substrate concentration used in the incubations was below the reported Km; therefore, the Ki values were predicted using Equation (2):(2) Ki=IC50/S/Km+1 where Km is Michaelis–Menten constant for the substrate, S is the substrate concentration, and IC50 is half-maximal inhibitory concentration.

[6] = system: UGTs (S-oxazepam glucuronidation in HLM); assay: as above; conditions: human, human liver microsomes
Procedure: as §1, §2, §3, §4

[7] = cited from earlier work; remark: listed apart in the source
[8] = IC50 corrected with fu,inc, read-out: IC50,u, S-Oxazepam Glucuronide
[9] = read-out: IC50, S-Oxazepam Glucuronide
[10] = read-out: IC50, R-Oxazepam Glucuronide
[11] = read-out: IC50,u, S-Oxazepam Glucuronide, IC50 corrected with fu,inc
[12] = pH 7.4, IC50, R-Oxazepam Glucuronide
[13] = pH 7.4, IC50,u, R-Oxazepam Glucuronide, IC50 corrected with fu,inc
[14] = pH 7.4, IC50, S-Oxazepam Glucuronide
[15] = pH 7.4, IC50,u, S-Oxazepam Glucuronide, IC50 corrected with fu,inc

| Molecule | IC50 (UGT2B15; [8]) | IC50 (UGT2B15; [9]) | IC50 [1, 10] | IC50 [1, 9] | IC50 [1, 11] | Cmax ([2]; THC dose 20 mg, oral) | Cmax ([2]; THC dose 25 mg, inhalation) | Cmax ([2]; THC dose 70 mg, inhalation) | Cmax ([2]; THC dose 100 mg, inhalation) | Cmax ([2]; THC dose 130 mg, oral) | Cmax ([2]; THC dose 160 mg, oral) | Cmax ([2]; after smoking) | Cmax ([2]; oral ingestion of 50 mg THC) | other results |
| --- | --- | --- | --- | --- | --- | --- | --- | --- | --- | --- | --- | --- | --- | --- |
| 11-hydroxy-Δ^9-tetrahydrocannabinol [11-OH-THC] | 4.5 ± 2.1 µM | 58 ± 27 µM | 18 ± 4.3 µM | 19 ± 2 µM | 1.8 ± 0.19 µM | 0.015 µM | 0.012 µM | 0.032 µM | 0.046 µM | 0.1 µM | 0.12 µM | 0.09 µM | 0.16 µM | IC50 ([1]; read-out: IC50,u, R-Oxazepam Glucuronide, IC50 corrected with fu,inc): 1.7 ± 0.4 µM |
| C=C(C)[C@@H]1CCC(C)=C[C@H]1c1c(O)cc(CCCCC)cc1O [CBD, cannabidiol] | 2 ± 0.35 µM | 54 ± 9 µM | – | – | – | – | – | – | – | – | – | – | – | inhibition at 2 h, 10 µM (UGT2B15; human, pH 7.4, rUGT2B15 microsomes, 10 µM cannabinoid, range over the four cannabinoids, read-out: Inhibition of S-oxazepam glucuronide formation): 40 to 66%; inhibition at 2 h, 100 µM (UGT2B15; human, pH 7.4, rUGT2B15 microsomes, 100 µM cannabinoid, range over the four cannabinoids, read-out: Inhibition of S-oxazepam glucuronide formation): 83 to 91%; IC50 at 2 h [3, 12]: 5.9 ± 1 µM; IC50 at 2 h [3, 13]: 0.36 ± 0.062 µM; IC50 at 2 h [4, 14]: 16 ± 7.7 µM; IC50 at 2 h [4, 15]: 0.98 ± 0.48 µM; IC50 at 2 h [5, 12]: 16 ± 7.7 µM; IC50 at 2 h [5, 13]: 0.84 ± 0.39 µM; IC50 at 2 h [6, 14]: 87 ± 46 µM; IC50 at 2 h [6, 15]: 4.5 ± 2.4 µM; Increase in N-desmethylclobazam concentration ([7]; coadministration of clobazam, stiripentol, and CBD 750 mg twice daily): 3.4 fold; Increase in the level of 1-hydroxymidazolam ([7]; oral CBD 750 mg twice daily with midazolam): 12%; Cmax ([2]; 1500 mg dose of CBD following a high-fat diet): 4.4 µM; Cmax ([2]; CBD 2 mg, inhalation): 0.0064 µM; Cmax ([2]; CBD 19 mg, inhalation): 0.35 µM; Cmax ([2]; CBD 70 mg, oral): 0.089 µM; Cmax ([2]; CBD 700 mg, oral): 0.89 µM; Cmax ([2]; CBD 2000 mg, oral): 2.5 µM |
| CCCCCc1cc(O)c2c(c1)OC(C)(C)[C@@H]1CCC(C)=C[C@@H]21 [THC, Δ^9-tetrahydrocannabinol] | 0.84 ± 0.42 µM | 20 ± 10 µM | 94 ± 26 µM | > 100 µM | > 4.8 µM | 0.03 µM | 0.25 µM | 0.7 µM | 0.99 µM | 0.2 µM | 0.24 µM | 0.64 µM | 0.53 µM | Cmax ([2]; smoking cannabis cigarettes with 3.55% THC): 0.515 µM |
